Measurements as given in patent US10385057B2, “Pyrazole compounds and methods of making and using same” (Lundbeck La Jolla Research Center, Inc., priority 2015, dated 2019).

Assays:
[1] = target: T1, FAAH (Homo sapiens, UniProt O00519); assay: In vitro competitive activity-based protein profiling, human FAAH; assay type: biochemical; conditions: 10 μM, read-out: FAAH % inh. 10 μM (human)
T1 construct: human prefrontal cortex or cell membrane fractions for human assays; from tissue
T1 sequence (O00519 1-579): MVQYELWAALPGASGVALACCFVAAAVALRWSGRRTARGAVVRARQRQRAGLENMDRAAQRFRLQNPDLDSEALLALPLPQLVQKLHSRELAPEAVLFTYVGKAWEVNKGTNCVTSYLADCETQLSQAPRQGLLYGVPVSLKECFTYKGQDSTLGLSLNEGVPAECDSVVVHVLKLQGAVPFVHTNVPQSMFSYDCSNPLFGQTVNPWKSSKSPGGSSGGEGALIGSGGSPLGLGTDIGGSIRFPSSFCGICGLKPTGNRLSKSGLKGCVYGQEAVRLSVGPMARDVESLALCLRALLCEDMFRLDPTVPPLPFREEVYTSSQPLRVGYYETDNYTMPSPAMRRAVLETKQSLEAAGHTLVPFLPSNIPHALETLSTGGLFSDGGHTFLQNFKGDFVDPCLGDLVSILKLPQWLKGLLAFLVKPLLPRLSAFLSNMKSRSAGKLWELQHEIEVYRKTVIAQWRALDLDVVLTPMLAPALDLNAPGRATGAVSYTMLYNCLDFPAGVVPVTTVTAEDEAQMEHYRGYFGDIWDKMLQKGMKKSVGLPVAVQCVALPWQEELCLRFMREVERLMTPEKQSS
Method: (§1) In Vitro Competitive Activity-Based Protein Profiling.
(§2) Proteomes (mouse brain membrane fraction or cell lysates for mouse assays; human prefrontal cortex or cell membrane fractions for human assays) (50 μL, 1.0 mg/mL total protein concentration) were preincubated with varying concentrations of inhibitors at 37° C. After 30 min, FP-Rh or HT-01 (1.0 μL, 50 μM in DMSO) was added and the mixture was incubated for another 30 min at 37° C. Reactions were quenched with SDS loading buffer (15 μL—4×) and run on SDS-PAGE. Following gel imaging, serine hydrolase activity was determined by measuring fluorescent intensity of gel bands corresponding to MAGL and FAAH using ImageJ 1.43u software.

[2] = target: T2, FAAH (Mus musculus, UniProt O08914); assay: In vitro competitive activity-based protein profiling, mouse FAAH; assay type: biochemical; conditions: for inhibition at 1 µM: read-out: FAAH % inh. 1 μM (mouse)
T2 construct: mouse brain membrane fraction or cell lysates for mouse assays; from tissue
T2 sequence (O08914 1-579): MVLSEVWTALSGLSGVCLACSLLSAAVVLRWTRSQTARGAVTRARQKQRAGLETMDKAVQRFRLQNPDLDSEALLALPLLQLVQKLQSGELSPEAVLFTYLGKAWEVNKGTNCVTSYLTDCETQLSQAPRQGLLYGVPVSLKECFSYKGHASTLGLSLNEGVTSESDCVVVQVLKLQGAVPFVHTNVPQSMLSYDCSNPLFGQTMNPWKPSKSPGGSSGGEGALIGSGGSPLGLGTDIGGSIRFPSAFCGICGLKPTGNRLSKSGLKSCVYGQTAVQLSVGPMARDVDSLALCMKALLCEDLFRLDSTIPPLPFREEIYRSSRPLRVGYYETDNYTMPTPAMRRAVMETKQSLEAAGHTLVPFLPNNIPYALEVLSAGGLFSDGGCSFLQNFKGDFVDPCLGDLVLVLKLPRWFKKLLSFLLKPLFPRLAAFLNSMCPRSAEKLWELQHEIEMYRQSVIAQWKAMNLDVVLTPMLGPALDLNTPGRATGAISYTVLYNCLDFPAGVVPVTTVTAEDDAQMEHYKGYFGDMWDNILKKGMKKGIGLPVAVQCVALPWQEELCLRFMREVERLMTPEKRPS
How it was run: (§3)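 Mouse brain membranes or cell lysates (mouse) and human prefrontal cortex or cell membrane fractions (human), 1.0 mg/mL protein, preincubated with inhibitor 30 min at 37 °C, then FP-Rh or HT-01 probe 30 min at 37 °C. SDS-PAGE; MAGL and FAAH activity from in-gel fluorescence band intensity.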

[3] = target: T3, MAGL (Homo sapiens, UniProt Q99685); assay: In vitro competitive activity-based protein profiling, human MAGL; assay type: biochemical; conditions: 10 μM, read-out: MAGL % inh. 10 μM (human)
T3 construct: human prefrontal cortex or cell membrane fractions for human assays; from tissue
T3 sequence (Q99685 1-303): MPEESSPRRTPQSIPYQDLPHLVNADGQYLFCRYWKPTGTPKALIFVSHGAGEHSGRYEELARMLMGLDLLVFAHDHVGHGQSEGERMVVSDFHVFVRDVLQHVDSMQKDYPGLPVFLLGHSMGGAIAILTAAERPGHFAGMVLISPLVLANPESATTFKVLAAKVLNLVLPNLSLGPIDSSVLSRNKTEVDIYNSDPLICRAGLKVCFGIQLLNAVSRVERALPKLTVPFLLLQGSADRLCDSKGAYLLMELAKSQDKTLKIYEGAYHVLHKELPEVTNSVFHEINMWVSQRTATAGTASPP
Method: as §1, §2

[4] = target: T4, MAGL (Mus musculus, UniProt O35678); assay: In vitro competitive activity-based protein profiling, mouse MAGL; assay type: biochemical; conditions: for inhibition at 1 µM: read-out: MAGL % inh. 1 μM (mouse)
T4 construct: mouse brain membrane fraction or cell lysates for mouse assays; from tissue
T4 sequence (O35678 1-303): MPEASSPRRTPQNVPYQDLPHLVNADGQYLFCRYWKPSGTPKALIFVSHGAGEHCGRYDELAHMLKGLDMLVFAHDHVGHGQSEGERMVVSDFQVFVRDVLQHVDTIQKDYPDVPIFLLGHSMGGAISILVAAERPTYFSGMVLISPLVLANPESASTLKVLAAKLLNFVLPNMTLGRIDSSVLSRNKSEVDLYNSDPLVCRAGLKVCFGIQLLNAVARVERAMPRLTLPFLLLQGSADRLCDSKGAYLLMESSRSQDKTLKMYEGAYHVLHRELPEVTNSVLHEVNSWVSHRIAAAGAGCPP
How it was run: as §3

[5] = target: T4, MAGL; assay: Mouse brain proteomes from inhibitor treated mice, MAGL; assay type: in vivo; conditions: oral gavage, brain 4 h after administration, read-out: MAGL % inh. 5 mg/kg (mouse)
Method: Preparation of Mouse Brain Proteomes from Inhibitor Treated Mice.
Inhibitors were administered to wild-type C57Bl/6J by oral gavage in a vehicle of polyethylene glycol. Each animal was sacrificed 4 h following administration and brain proteomes were prepared and analyzed according to previously established methods (See Niphakis, M. J., et al. (2011) ACS Chem. Neurosci. and Long, J. Z., et al. Nat. Chem. Biol. 5:37-44).

SMILES	inhibition at 10 µM [1]	inhibition at 1 µM [2]	inhibition at 10 µM [3]	inhibition at 1 µM [4]	inhibition at 5 mg/kg [5]	IC50 [2]	IC50 [4]
O=C(O)c1cnn(C(=O)N2CC3CN(Cc4ccc(Cl)cc4)CC3C2)c1 (stereo not drawn) [Example 46, 1-(5-(4-chlorobenzyl)octahydropyrrolo[3,4-c]pyrrole-2-carbonyl)-1H-pyrazole-4-carboxylic acid]	0 to 25%	≥ 75%	≥ 75%	0 to 25%	–	–	–
O=C(O)c1cnn(C(=O)N2CC3CN(Cc4ccc(C(F)(F)F)cc4)CC3C2)c1 (stereo not drawn) [Example 47, 1-(5-(4-(trifluoromethyl)benzyl)octahydropyrrolo[3,4-c]pyrrole-2-carbonyl)-1H-pyrazole-4-carboxylic acid]	50 to 75%	≥ 75%	≥ 75%	0 to 25%	–	–	–
O=C(O)c1cnn(C(=O)N2CCC3(CCN(Cc4ccc(Cl)cc4)C3)C2)c1 (stereo not drawn) [Example 48, 1-(7-(4-chlorobenzyl)-2,7-diazaspiro[4.4]nonane-2-carbonyl)-1H-pyrazole-4-carboxylic acid]	0 to 25%	≥ 75%	≥ 75%	0 to 25%	–	–	–
CN(Cc1ccccc1C(F)(F)F)[C@@H]1C[C@@H]2CN(C(=O)n3cc(C(N)=O)cn3)C[C@@H]2C1 [Example 90, 1-(cis-5-(methyl(2-(trifluoromethyl)benzyl)amino)octahydrocyclopenta[c]pyrrole-2-carbonyl)-1H-pyrazole-4-carboxamide]	–	≥ 75%	–	≥ 75%	≥ 75%	–	–
CN(Cc1ccccc1Cl)[C@H]1C[C@@H]2CN(C(=O)n3cc(C(N)=O)cn3)C[C@@H]2C1 [Example 96, 1-(trans-5-((2-chlorobenzyl)(methyl)amino)octahydrocyclopenta[c]pyrrole-2-carbonyl)-1H-pyrazole-4-carboxamide]	–	≥ 75%	–	≥ 75%	≥ 75%	≤ 100 nM	100 to 1000 nM
O=C(N1CCC2(CCN(Cc3ccccc3Cl)C2)C1)n1cc(Cl)cn1 (stereo not drawn) [Example 112, (4-chloro-1H-pyrazol-1-yl)(7-(2-chlorobenzyl)-2,7-diazaspiro[4.4]nonan-2-yl)methanone]	–	≥ 75%	–	≥ 75%	0 to 25%	≤ 100 nM	100 to 1000 nM
O=C(N1CC2CN(Cc3ccccc3Cl)CC2C1)n1cc(Cl)cn1 (stereo not drawn) [Example 116, (4-chloro-1H-pyrazol-1-yl)(5-(2-chlorobenzyl)hexahydropyrrolo[3,4-c]pyrrol-2(1H)-yl)methanone]	–	≥ 75%	–	≥ 75%	25 to 50%	≤ 100 nM	100 to 1000 nM
O=C(N1CC2CN(Cc3ccc(Cl)cc3)CC2C1)n1cc(Cl)cn1 (stereo not drawn) [Example 118, (4-chloro-1H-pyrazol-1-yl)(5-(4-chlorobenzyl)hexahydropyrrolo[3,4-c]pyrrol-2(1H)-yl)methanone]	–	≥ 75%	–	≥ 75%	≥ 75%	≤ 100 nM	100 to 1000 nM
O=C(N1CC2CN(Cc3ccc(Cl)c(Cl)c3)CC2C1)n1cc(Cl)cn1 (stereo not drawn) [Example 119, (4-chloro-1H-pyrazol-1-yl)(5-(3,4-dichlorobenzyl)hexahydropyrrolo[3,4-c]pyrrol-2(1H)-yl)methanone]	–	≥ 75%	–	≥ 75%	≥ 75%	≤ 100 nM	≤ 100 nM
Cc1cc(-c2ccccc2)ccc1CN1CCC2(CCN(C(=O)n3cc(Cl)cn3)C2)C1 (stereo not drawn) [Example 130, (4-chloro-1H-pyrazol-1-yl)(7-((3-methyl-[1,1′-biphenyl]-4-yl)methyl)-2,7-diazaspiro[4.4]nonan-2-yl)methanone]	–	≥ 75%	–	≥ 75%	≥ 75%	≤ 100 nM	≤ 100 nM
CN(Cc1ccccc1Cl)[C@H]1C[C@@H]2CN(C(=O)n3cc(C(=O)O)cn3)C[C@@H]2C1 [Example 183, 1-(trans-5-((2-chlorobenzyl)(methyl)amino)octahydrocyclopenta[c]pyrrole-2-carbonyl)-1H-pyrazole-4-carboxylic acid]	25 to 50%	50 to 75%	≥ 75%	0 to 25%	–	–	–
O=C(O)c1cnn(C(=O)N2CCC3(CCN(Cc4cccc(Oc5ccccc5)c4)C3)C2)c1 (stereo not drawn) [Example 185, 1-(7-(3-phenoxybenzyl)-2,7-diazaspiro[4.4]nonane-2-carbonyl)-1H-pyrazole-4-carboxylic acid]	25 to 50%	≥ 75%	≥ 75%	0 to 25%	–	–	–
CN(Cc1cccc(Oc2ccccc2)c1)[C@H]1C[C@@H]2CN(C(=O)n3cc(C(=O)O)cn3)C[C@@H]2C1 [Example 188, 1-(trans-5-(methyl(3-phenoxybenzyl)amino)octahydrocyclopenta[c]pyrrole-2-carbonyl)-1H-pyrazole-4-carboxylic acid]	50 to 75%	50 to 75%	≥ 75%	0 to 25%	–	–	–
O=C(c1cnn(C(=O)N2CC3CN(Cc4cccc(Oc5ccc(Cl)cc5)c4)CC3C2)c1)N1CCCC1 (stereo not drawn) [Example 190, (5-(3-(4-chlorophenoxy)benzyl)hexahydropyrrolo[3,4-c]pyrrol-2(1H)-yl)(4-(pyrrolidine-1-carbonyl)-1H-pyrazol-1-yl)methanone]	≥ 75%	≥ 75%	≥ 75%	0 to 25%	–	–	–
NC(=O)c1cnn(C(=O)N2CC[C@]3(CCN(Cc4ccc(N5CCOCC5)cc4C(F)(F)F)C3)C2)c1 [Example 195, (S)-1-(7-(4-morpholino-2-(trifluoromethyl)benzyl)-2,7-diazaspiro[4.4]nonane-2-carbonyl)-1H-pyrazole-4-carboxamide]	–	≥ 75%	–	≥ 75%	≥ 75%	≤ 100 nM	100 to 1000 nM
